# Results: patent US11078204B2, “Heterocyclic derivatives as PI3K inhibitors” (Incyte Corporation, priority 2018, dated 2021)
# Structures can show the parent of a compound that is named as a salt.
# Key:
# [1] = target: PI3Kγ (p110γ) Recombinant Human Protein (Homo sapiens (Human), UniProt P48736); assay: PI3K-γ Scintillation Proximity Assay; assay type: biochemical; conditions: 20 μM PIP2, 2 μM ATP, 13 nM PI3Kγ, 120 min
# From the text: Example B. PI3K-γ Scintillation Proximity Assay
# (§1) [γ-^33P]ATP (10 mCi/mL) and Wheat Germ Agglutinin (WGA) YSi SPA Scintillation Beads was purchased from Perkin Elmer (Waltham, Mass.). Lipid kinase substrate, D-myo-Phosphatidylinositol 4,5-bisphosphate (PtdInS(4,5)P2)D (+)-sn-1,2-di-O-octanoylglyceryl, 3-O-phospho linked (PIP2), CAS 204858-53-7, was purchased from Echelon Biosciences (Salt Lake City, Utah). PI3Kγ (p110γ) Recombinant Human Protein was purchased from Life technology (Grand Island, N.Y.). ATP, MgCl2, DTT, EDTA, MOPS and CHAPS were purchased from Sigma Aldrich (St. Louis, Mo.).
# (§2) The kinase reaction was conducted in polystyrene 384-well Greiner Bio-one white plate from Thermo Fisher Scientific in a final volume of 25 μL. Inhibitors were first diluted serially in DMSO and added to the plate wells before the addition of other reaction components. The final concentration of DMSO in the assay was 2%. The PI3Kγ assay was carried out at room temperature in 20 mM MOPS, pH 6.7, 10 mM MgCl2, 5 mM DTT and CHAPS 0.03%. Reactions were initiated by the addition of ATP, the final reaction mixture consisted of 20 μM PIP2, 2 μM ATP, 0.5 μCi [γ-^33p]ATP, 13 nM PI3Kγ. Reactions were incubated for 120 min and terminated by the addition of 40 μL SPA beads suspended in quench buffer: 163 mM potassium phosphate pH 7.8, 20% glycerol, 25 mM EDTA. The final concentration of SPA beads is 1.0 mg/mL. After the plate sealing, plates were shaken overnight at room temperature and centrifuged at 1500 rpm for 10 min, the radioactivity of the product was determined by scintillation counting on Topcount (PerkinElmer). IC50 determination was performed by fitting the curve of percent of the solvent control activity versus the log of the inhibitor concentration using the GraphPad Prism 6.0 software.
# [2] = target: PI3Kδ (p110δ/p85α) Recombinant Human Protein (Homo sapiens (Human), UniProt O00329); assay: PI3Kδ Scintillation Proximity Assay; assay type: biochemical; conditions: 20 μM PIP2, 2 μM ATP, 3.4 nM PI3Kδ, 120 min
# From the text: Example C. PI3Kδ Scintillation Proximity Assay
# as §1, with “PI3Kδ (p110δ/p85α)” for “PI3Kγ (p110γ)”, “Eurofins (St Charles, Mo.).” for “Life technology (Grand Island, N.Y.).”
# as §2, with “PI3Kδ” for “PI3Kγ”, “[γ-^33P]ATP, 3.4” for “[γ-^33p]ATP, 13”, “PI3Kδ.” for “PI3Kγ.”
# [3] = system: Phosphorylated Ribosomal Protein S6 (RPS6) in THP-1 cells; assay: THP-1 RPS6 ELISA Assay; assay type: cell-based; conditions: Homo sapiens, 2 hours compound, 10 nM MCP-1 for 15 minutes, Phospho-RPS6 ELISA, read-out: PI3Kγ_THP1_RPS6_ELISA IC50
# Procedure: Example A. THP-1 RPS6 ELISA Assay To measure the Phosphorylated Ribosomal Protein S6 (RPS6) in cell lysates, THP-1 cells (Human Acute Monocytic Leukemia) are purchased from ATCC (Manassas, Va.) and maintained in RPMI with 10% FBS (Gibco/Life Technologies, Carlsbad, Calif.). For the assay, THP-1 cells are serum starved overnight in RPMI, then plated in RPMI (2×10^5 cells/well in 90 μL) into 96-well flat-bottom tissue culture treated plates (Corning, Corning, N.Y.), in the presence or absence of a concentration range of test compounds. Covered plates are incubated for 2 hours at 37° C., 5% CO2 then treated with or without 10 nM MCP-1 (MYBioSource, San Diego, Calif.) for 15 minutes at 37° C., 5% CO2. Plates are centrifuged at 1600 RPM and supernatants are removed. Cells are lysed in Lysis Buffer (Cell Signaling, Danvers, Mass.) with Protease Inhibitor (Calbiochem/EMD, Germany), PMSF (Sigma, St Louis Mo.), HALTS (Thermo Fisher, Rockford, Ill.) for 30 min on wet ice. Cell lysates are frozen at −80° C. before testing. The lysates are tested in the Human/Mouse/Rat Phospho-RPS6 ELISA (R&D Systems, Inc. Minn, Minn.). The plate is measured using a microplate reader (SpectraMax M5-Molecular Devices, LLC Sunnyvale, Calif.) set to 450 nm with a wavelength correction of 540. IC50 determination is performed by fitting the curve of inhibitor percent inhibition versus the log of the inhibitor concentration using the GraphPad Prism 5.0 software.
# Chain of PI3Kδ (p110δ/p85α) Recombinant Human Protein (O00329 whole entry): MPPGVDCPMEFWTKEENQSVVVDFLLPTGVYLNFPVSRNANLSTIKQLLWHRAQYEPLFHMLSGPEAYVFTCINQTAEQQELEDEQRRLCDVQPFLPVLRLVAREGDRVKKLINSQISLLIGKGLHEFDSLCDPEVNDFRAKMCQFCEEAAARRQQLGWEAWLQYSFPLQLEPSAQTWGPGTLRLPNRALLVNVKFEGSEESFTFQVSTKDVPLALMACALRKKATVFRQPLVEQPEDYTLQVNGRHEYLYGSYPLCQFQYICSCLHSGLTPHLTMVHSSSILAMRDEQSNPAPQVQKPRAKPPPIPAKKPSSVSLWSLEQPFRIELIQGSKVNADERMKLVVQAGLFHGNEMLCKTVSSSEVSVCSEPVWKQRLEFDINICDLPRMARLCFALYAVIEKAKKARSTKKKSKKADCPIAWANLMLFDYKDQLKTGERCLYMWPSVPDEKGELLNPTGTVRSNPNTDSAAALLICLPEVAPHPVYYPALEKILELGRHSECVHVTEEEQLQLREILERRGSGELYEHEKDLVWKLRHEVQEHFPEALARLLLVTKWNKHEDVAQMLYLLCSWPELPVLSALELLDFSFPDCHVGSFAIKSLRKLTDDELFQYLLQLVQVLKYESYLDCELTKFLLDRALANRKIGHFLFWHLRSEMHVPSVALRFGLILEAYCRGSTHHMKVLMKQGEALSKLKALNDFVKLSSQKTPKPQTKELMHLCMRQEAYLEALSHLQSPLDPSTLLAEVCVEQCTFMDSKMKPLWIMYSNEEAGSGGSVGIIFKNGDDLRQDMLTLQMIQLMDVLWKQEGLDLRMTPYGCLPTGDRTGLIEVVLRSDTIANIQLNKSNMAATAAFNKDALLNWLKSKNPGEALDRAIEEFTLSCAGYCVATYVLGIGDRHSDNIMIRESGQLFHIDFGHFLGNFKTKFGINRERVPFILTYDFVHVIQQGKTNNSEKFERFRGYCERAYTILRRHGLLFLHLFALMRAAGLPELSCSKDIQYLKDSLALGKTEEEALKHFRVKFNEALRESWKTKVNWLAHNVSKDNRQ
# Chain of PI3Kδ (p110δ/p85α) Recombinant Human Protein (P27986 whole entry partner): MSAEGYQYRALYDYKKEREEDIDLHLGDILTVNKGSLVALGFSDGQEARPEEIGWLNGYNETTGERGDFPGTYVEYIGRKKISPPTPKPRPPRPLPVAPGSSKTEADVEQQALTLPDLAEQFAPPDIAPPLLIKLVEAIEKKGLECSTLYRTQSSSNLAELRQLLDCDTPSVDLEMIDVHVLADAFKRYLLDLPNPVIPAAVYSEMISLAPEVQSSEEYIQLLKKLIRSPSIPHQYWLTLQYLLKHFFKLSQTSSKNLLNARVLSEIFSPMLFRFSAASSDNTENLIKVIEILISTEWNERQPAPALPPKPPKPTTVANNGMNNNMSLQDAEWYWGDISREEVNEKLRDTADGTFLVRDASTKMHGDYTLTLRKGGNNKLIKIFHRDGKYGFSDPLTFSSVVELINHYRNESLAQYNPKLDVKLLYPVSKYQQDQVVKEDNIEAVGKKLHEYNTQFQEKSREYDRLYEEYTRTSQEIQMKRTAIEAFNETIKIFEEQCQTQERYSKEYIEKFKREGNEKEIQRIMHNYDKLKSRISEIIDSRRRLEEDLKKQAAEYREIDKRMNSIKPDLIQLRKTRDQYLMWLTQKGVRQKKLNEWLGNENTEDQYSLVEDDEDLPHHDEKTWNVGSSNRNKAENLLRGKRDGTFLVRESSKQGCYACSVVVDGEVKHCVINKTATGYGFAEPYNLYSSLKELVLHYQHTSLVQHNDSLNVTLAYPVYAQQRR
# Chain of PI3Kγ (p110γ) Recombinant Human Protein (P48736 whole entry): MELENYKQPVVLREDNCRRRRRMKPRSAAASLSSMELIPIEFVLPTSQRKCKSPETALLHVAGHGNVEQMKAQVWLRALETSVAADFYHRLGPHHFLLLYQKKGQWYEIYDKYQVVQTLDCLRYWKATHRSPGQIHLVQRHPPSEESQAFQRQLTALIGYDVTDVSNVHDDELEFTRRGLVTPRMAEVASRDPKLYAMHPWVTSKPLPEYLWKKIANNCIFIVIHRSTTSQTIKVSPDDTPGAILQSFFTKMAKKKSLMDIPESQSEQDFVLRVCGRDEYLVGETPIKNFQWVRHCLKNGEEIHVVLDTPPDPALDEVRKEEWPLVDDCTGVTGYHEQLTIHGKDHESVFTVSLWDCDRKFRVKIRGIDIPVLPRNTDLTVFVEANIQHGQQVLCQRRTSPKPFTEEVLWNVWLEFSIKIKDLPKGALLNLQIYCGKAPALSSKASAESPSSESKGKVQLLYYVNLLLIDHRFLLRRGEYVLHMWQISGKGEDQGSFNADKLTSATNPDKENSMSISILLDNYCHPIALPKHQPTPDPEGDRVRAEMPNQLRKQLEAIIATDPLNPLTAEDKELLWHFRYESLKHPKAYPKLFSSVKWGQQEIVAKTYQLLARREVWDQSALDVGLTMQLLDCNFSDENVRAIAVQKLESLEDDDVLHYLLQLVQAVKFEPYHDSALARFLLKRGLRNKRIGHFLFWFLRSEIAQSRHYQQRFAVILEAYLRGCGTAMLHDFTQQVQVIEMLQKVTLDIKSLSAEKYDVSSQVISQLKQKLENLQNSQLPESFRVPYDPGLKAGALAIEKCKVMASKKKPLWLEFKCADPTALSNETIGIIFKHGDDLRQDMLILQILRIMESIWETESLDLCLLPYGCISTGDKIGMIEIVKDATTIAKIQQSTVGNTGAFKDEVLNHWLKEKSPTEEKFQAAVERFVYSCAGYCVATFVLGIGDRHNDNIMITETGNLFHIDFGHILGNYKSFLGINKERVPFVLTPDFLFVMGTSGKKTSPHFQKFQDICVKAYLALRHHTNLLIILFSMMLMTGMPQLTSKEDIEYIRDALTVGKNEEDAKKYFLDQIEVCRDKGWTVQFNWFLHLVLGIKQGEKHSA
IC50 [1],IC50 [2],IC50 [3],Structure (SMILES)
≤ 100 nM,< 2000 nM,≥ 1000 nM,"C[C@@H](C1CC1)N1Cc2cc(-c3cnc4c(N)nc(C(F)(F)F)cn34)cc(Cl)c2C1=O [Example 1, (S)-5-(8-Amino-6-(trifluoromethyl)imidazo[1,2-a]pyrazin-3-yl)-7-chloro-2-(1-cyclopropylethyl)isoindolin-1-one]"
≤ 100 nM,≤ 500 nM,≤ 500 nM,"CC(C)NC(=O)c1cn2c(-c3cc4c(c(S(C)(=O)=O)c3)C(=O)N([C@@H](C)C3CC3)C4)cnc2c(N)n1 (single isomer, unassigned) [Example 28, trifluoroacetate salt]"
≤ 100 nM,≤ 500 nM,< 1000 nM,"C[C@@H](C1CC1)N1Cc2cc(-c3cnc4c(N)nc(C(=O)N5CC(C)(C)C5)cn34)cc(S(C)(=O)=O)c2C1=O [Example 29c, (S)-5-(8-Amino-6-(3,3-dimethylazetidine-1-carbonyl)imidazo[1,2-a]pyrazin-3-yl)-2-(1-cyclopropylethyl)-7-(methylsulfonyl)isoindolin-1-one, trifluoroacetate salt]"
≤ 100 nM,≤ 500 nM,< 1000 nM,"C[C@@H](C1CC1)N1Cc2cc(-c3cnc4c(N)nc(C(=O)N5CC(F)(F)C5)cn34)cc(S(C)(=O)=O)c2C1=O [Example 29d, (S)-5-(8-Amino-6-(3,3-difluoroazetidine-1-carbonyl)imidazo[1,2-a]pyrazin-3-yl)-2-(1-cyclopropylethyl)-7-(methylsulfonyl)isoindolin-1-one, trifluoroacetate salt]"
≤ 100 nM,≤ 500 nM,≤ 500 nM,"C[C@@H](C1CC1)N1Cc2cc(-c3cnc4c(N)nc(-c5ccnn5C)cn34)cc(S(C)(=O)=O)c2C1=O [Example 36, (S)-5-(8-Amino-6-(1-methyl-1H-pyrazol-5-yl)imidazo[1,2-a]pyrazin-3-yl)-2-(1-cyclopropylethyl)-7-(methylsulfonyl)isoindolin-1-one, trifluoroacetate salt]"

# The remaining lines, values behind:
Structure (SMILES),IC50 [1],IC50 [2],IC50 [3]
"Cc1cc(-c2cnc3c(N)ncnn23)cc2cn(C(C)C3CC3)nc12 (racemic) [Example 18, 7-(2-(1-Cyclopropylethyl)-7-methyl-2H-indazol-5-yl)imidazo[2,1-f][1,2,4]triazin-4-amine trifluoroacetate salt]",≤ 100 nM,≥ 2000 nM,≥ 1000 nM
"CC(C)N1Cc2cc(-c3cnc4c(N)ncnn34)ccc2C1=O [Example 14, 5-(4-Aminoimidazo[2,1-f][1,2,4]triazin-7-yl)-2-isopropylisoindolin-1-one trifluoroacetate salt]",≤ 100 nM,≥ 2000 nM,≥ 1000 nM
"CC(C)N1Cc2cc(-c3cnc4c(N)nc(C(F)(F)F)cn34)ccc2C1=O [Example 13, 5-(8-Amino-6-(trifluoromethyl)imidazo[l,2-a]pyrazin-3-yl)-2-isopropylisoindolin-1-one trifluoroacetate salt]",≤ 100 nM,≥ 2000 nM,≥ 1000 nM
"C[C@@H](C1CC1)N1Cc2cc(-c3cnc4c(N)nc(C(F)(F)F)cn34)ccc2C1=O [Example 5, (S)-5-(8-Amino-6-(trifluoromethyl)imidazo[1,2-a]pyrazin-3-yl)-2-(1-cyclopropylethyl)isoindolin-1-one]",≤ 100 nM,≥ 2000 nM,≥ 1000 nM
"CC(c1ccccc1)N1Cc2cc(-c3cnc4c(N)ncnn34)ccc2C1=O (racemic) [Example 12, 5-(4-Aminoimidazo[2,1-f][1,2,4]triazin-7-yl)-2-(1-phenylethyl)isoindolin-1-one, trifluoroacetate salt]",≤ 100 nM,≤ 500 nM,≥ 1000 nM
"C[C@@H](C1CC1)N1Cc2cc(-c3cnc4c(N)ncnn34)ccc2C1=O [Example 6, (S)-5-(4-Aminoimidazo[2,1-f][1,2,4]triazin-7-yl)-2-(1-cyclopropylethyl)isoindolin-1-one]",≤ 100 nM,≥ 2000 nM,≥ 1000 nM
"CC(=O)c1cc(-c2cnc3c(N)ncnn23)cc2c1C(=O)N([C@@H](C)C1CC1)C2 [Example 15, (S)-7-Acetyl-5-(4-aminoimidazo[2,1-f][1,2,4]triazin-7-yl)-2-(1-cyclopropylethyl)isoindolin-1-one trifluoroacetate salt]",≤ 100 nM,≤ 500 nM,≥ 1000 nM
"CSc1cc(-c2cnc3c(N)nc(C(F)(F)F)cn23)cc2c1C(=O)N([C@@H](C)C1CC1)C2 [Example 2, (S)-5-(8-Amino-6-(trifluoromethyl)imidazo[1,2-a]pyrazin-3-yl)-2-(1-cyclopropylethyl)-7-(methylthio)isoindolin-1-one]",≤ 100 nM,≤ 500 nM,≥ 1000 nM
"C[C@@H](C1CC1)N1Cc2cc(-c3cnc4c(N)ncnn34)cc(Cl)c2C1=O [Example 7, (S)-5-(4-Aminoimidazo[2,1-f][1,2,4]triazin-7-yl)-7-chloro-2-(1-cyclopropylethyl)isoindolin-1-one]",≤ 100 nM,≤ 500 nM,≥ 1000 nM
"C[C@@H](C1CC1)N1Cc2cc(-c3cnc4c(N)ncnn34)cc(C(O)(CO)C(F)(F)F)c2C1=O (mixture of isomers) [Example 39, 5-(4-Aminoimidazo[2,1-f][1,2,4]triazin-7-yl)-2-((S)-1-cyclopropylethyl)-7-(1,1,1-trifluoro-2,3-dihydroxypropan-2-yl)isoindolin-1-one, trifluoroacetate salt]",≤ 100 nM,< 2000 nM,≥ 1000 nM
"C[C@@H](C1CC1)N1Cc2cc(-c3cnc4c(N)nc(C(F)(F)F)cn34)cc(C(O)(CO)C(F)(F)F)c2C1=O (mixture of isomers) [Example 40, 5-(8-Amino-6-(trifluoromethyl)imidazo[1,2-a]pyrazin-3-yl)-2-((S)-1-cyclopropylethyl)-7-(1,1,1-trifluoro-2,3-dihydroxypropan-2-yl)isoindolin-1-one, trifluoroacetate salt]",≤ 100 nM,< 2000 nM,≥ 1000 nM
